The target of one test is T1, AChE from electric eel (Electrophorus electricus, UniProt O42275).
T1 construct: purchased Sigma, St. Louis, MO, USA
Nature of the test: biochemical. To be noted: mean ± SD, n = three experiments; 25 °C, PBS pH 7.4, substrate ATCh 40 μM.

In a further test the target is T2, BChE from equine serum (Equus caballus, UniProt P81908).
T2 construct: BChE (from equine serum); purchased Sigma, St. Louis, MO, USA; host or cells: equine serum
Nature of the test: In vitro BChE inhibition, modified Ellman's method. It is filed as biochemical. The conditions noted are these: for SI (index selectivity) = IC50 (AChE)/IC50 (BChE): higher value = higher selectivity to BChE.

T2 sequence (P81908 whole entry): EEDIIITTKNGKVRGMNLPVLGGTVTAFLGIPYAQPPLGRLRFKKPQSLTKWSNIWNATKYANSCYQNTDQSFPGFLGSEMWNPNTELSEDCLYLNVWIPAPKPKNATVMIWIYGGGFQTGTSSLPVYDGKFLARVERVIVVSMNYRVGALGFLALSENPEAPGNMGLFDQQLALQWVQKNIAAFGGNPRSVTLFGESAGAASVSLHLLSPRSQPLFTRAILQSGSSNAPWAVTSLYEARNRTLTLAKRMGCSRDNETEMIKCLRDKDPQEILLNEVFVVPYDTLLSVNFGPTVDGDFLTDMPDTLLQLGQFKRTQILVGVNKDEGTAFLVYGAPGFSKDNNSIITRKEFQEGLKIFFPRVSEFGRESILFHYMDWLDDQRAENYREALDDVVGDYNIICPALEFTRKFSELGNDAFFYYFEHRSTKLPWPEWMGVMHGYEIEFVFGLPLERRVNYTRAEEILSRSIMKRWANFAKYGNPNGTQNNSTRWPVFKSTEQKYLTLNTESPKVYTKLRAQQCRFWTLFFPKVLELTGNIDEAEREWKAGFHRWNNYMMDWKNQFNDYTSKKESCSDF
T1 sequence (O42275 24-633): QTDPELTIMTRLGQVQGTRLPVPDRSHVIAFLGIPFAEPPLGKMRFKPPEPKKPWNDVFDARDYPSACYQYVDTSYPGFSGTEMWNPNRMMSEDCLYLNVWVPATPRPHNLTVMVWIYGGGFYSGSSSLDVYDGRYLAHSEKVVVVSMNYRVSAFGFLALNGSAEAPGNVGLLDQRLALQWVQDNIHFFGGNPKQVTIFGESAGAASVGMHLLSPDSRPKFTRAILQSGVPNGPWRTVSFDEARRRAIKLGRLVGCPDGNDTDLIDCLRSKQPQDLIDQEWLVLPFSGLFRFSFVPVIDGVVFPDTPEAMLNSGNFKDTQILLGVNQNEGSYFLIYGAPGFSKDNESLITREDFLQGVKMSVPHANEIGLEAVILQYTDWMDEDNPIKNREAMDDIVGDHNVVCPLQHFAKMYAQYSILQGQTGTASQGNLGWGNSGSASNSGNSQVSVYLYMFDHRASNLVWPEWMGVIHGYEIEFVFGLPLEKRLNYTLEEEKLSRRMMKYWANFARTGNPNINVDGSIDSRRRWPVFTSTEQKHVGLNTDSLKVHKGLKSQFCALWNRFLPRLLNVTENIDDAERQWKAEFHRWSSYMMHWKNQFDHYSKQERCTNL

The compound `CCN(C(=O)OC)C(C)C(=O)c1ccccc1` (stereo not drawn) [Compound 1, Methyl ethyl(1-oxo-1-phenylpropan-2-yl)carbamate] gave an IC50 at AChE from electric eel of 245.3 ± 0.75 µM. In addition, at BChE from equine serum, inhibition was half-maximal at 227.9 ± 0.9 µM (IC50) and the “SI (index selectivity) = IC50 (AChE)/IC50 (BChE)” value (“SI (index selectivity) = IC50” below) is listed as 1.08.

Compound `CCC(C(=O)c1ccccc1)N(C)C(=O)OC` (stereo not drawn) [Compound 2, Methyl methyl(1-oxo-1-phenylbutan-2-yl)carbamate] showed an IC50 against AChE from electric eel of 329 ± 9.72 µM. Moreover, at BChE from equine serum, the IC50 was 441 ± 7.54 µM and the “SI (index selectivity) = IC50” value was 0.75.

Turning to `CCC(C(=O)c1ccccc1)N(CC)C(=O)OC` (stereo not drawn) [Compound 3, Methyl ethyl(1-oxo-1-phenylbutan-2-yl)carbamate], the IC50 on AChE from electric eel stood at 273.7 ± 2.16 µM; against BChE from equine serum, 363 ± 7.41 µM. The “SI (index selectivity) = IC50” value at BChE from equine serum was 0.75.

The compound `COC(=O)N(C)C(C)C(=O)c1cccc(C)c1` (stereo not drawn) [Compound 4, Methyl methyl(1-oxo-1-(m-tolyl)propan-2-yl)carbamate] registered an IC50 against AChE from electric eel of 134 ± 2.3 µM. In addition, on BChE from equine serum, the IC50 worked out at 116 ± 2.16 µM and the “SI (index selectivity) = IC50” value is listed as 1.16.

With `COC(=O)N(C)C(C)C(=O)c1cccc(Cl)c1` (stereo not drawn) [Compound 5, Methyl (1-(3-chlorophenyl)-1-oxopropan-2-yl)(methyl)carbamate], the IC50 against AChE from electric eel was determined as 330 ± 42.1 µM. Besides, on BChE from equine serum, inhibition was half-maximal at 113.6 ± 0.29 µM (IC50) and the “SI (index selectivity) = IC50” value came to 2.90.

Take `COC(=O)N(C)C(C)C(=O)c1ccc(OC)cc1` (stereo not drawn) [Compound 6, Methyl (1-(4-methoxyphenyl)-1-oxopropan-2-yl)(methyl)carbamate]: the IC50 on AChE from electric eel was 147 ± 1.51 µM. Further, on BChE from equine serum, the IC50 is 186.6 ± 1.55 µM and the “SI (index selectivity) = IC50” value was 0.79.

Take `COC(=O)N(C)C(C)C(=O)c1ccc(C)cc1` (stereo not drawn) [Compound 7, Methyl methyl(1-oxo-1-(p-tolyl)propan-2-yl)carbamate]: the half-inhibitory concentration (IC50) at AChE from electric eel came out at 50.6 ± 0.63 µM; against BChE from equine serum, 181 ± 12 µM. The “SI (index selectivity) = IC50” value at BChE from equine serum came to 0.28.

With `COC(=O)N(C)C(C)C(=O)c1ccc(Cl)cc1` (stereo not drawn) [Compound 8, Methyl (1-(4-chlorophenyl)-1-oxopropan-2-yl)(methyl)carbamate], half-maximal inhibition against AChE from electric eel (IC50) was put at 309 ± 6.16 µM. Also, at BChE from equine serum, it took 132 ± 4.55 µM to reach half-maximal inhibition (IC50) and the “SI (index selectivity) = IC50” value is 2.35.

On to `COC(=O)N(C)C(C)C(=O)c1ccc(Br)cc1` (stereo not drawn) [Compound 9, Methyl (1-(4-bromophenyl)-1-oxopropan-2-yl)(methyl)carbamate], for which the IC50 on AChE from electric eel came to 282.7 ± 0.71 µM. In addition, on BChE from equine serum, the IC50 was found to be 224.1 ± 2.19 µM and the “SI (index selectivity) = IC50” value turned out to be 1.26.

Turning to `COC(=O)N(C)C(C)C(=O)c1ccc2c(c1)OCO2` (stereo not drawn) [Compound 10, Methyl (1-(benzo[d][1,3]dioxol-5-yl)-1-oxopropan-2-yl)(methyl)carbamate], the IC50 on AChE from electric eel was 225 ± 2.72 µM. Besides, at BChE from equine serum, 194.9 ± 1.93 µM corresponded to half-maximal inhibition (IC50) and the “SI (index selectivity) = IC50” value came to 1.16.

On to `CCN(C(=O)Oc1ccccc1)C(C)C(=O)c1ccccc1` (stereo not drawn) [Compound 11, Phenyl ethyl(1-oxo-1-phenylpropan-2-yl)carbamate], for which, at AChE from electric eel, half-maximal inhibition (IC50) required 167 ± 1.75 µM. Also, on BChE from equine serum, the IC50 stood at 27.6 ± 0.55 µM and the “SI (index selectivity) = IC50” value was 6.03.

As for `CCC(C(=O)c1ccccc1)N(C)C(=O)Oc1ccccc1` (stereo not drawn) [Compound 12, Phenyl methyl(1-oxo-1-phenylbutan-2-yl)carbamate], the IC50 against AChE from electric eel was 179 ± 6.21 µM; against BChE from equine serum, 53 ± 1.06 µM. Moreover, the “SI (index selectivity) = IC50” value on BChE from equine serum was 3.38.

With `CCC(C(=O)c1ccccc1)N(CC)C(=O)Oc1ccccc1` (stereo not drawn) [Compound 13, Phenyl ethyl(1-oxo-1-phenylbutan-2-yl)carbamate], half-maximal inhibition at AChE from electric eel (IC50) required 95.7 ± 5.37 µM. Besides, at BChE from equine serum, the IC50 was 15.62 ± 0.06 µM and the “SI (index selectivity) = IC50” value was found to be 6.13.

For the compound `CCCC(C(=O)c1ccccc1)N(C)C(=O)Oc1ccccc1` (stereo not drawn) [Compound 14, Phenyl methyl(1-oxo-1-phenylpentan-2-yl)carbamate], the IC50 on AChE from electric eel amounted to 97.97 ± 0.36 µM; on BChE from equine serum, 16.55 ± 0.13 µM. Besides, the “SI (index selectivity) = IC50” value on BChE from equine serum is 5.92.

With `Cc1cccc(C(=O)C(C)N(C)C(=O)Oc2ccccc2)c1` (stereo not drawn) [Compound 15, Phenyl methyl(1-oxo-1-(m-tolyl)propan-2-yl)carbamate], the half-inhibitory concentration (IC50) on AChE from electric eel was 166 ± 2.75 µM; on BChE from equine serum, 48.29 ± 0.31 µM. Further, the “SI (index selectivity) = IC50” value on BChE from equine serum is given as 3.43.

Regarding `CC(C(=O)c1cccc(Cl)c1)N(C)C(=O)Oc1ccccc1` (stereo not drawn) [Compound 16, Phenyl (1-(3-chlorophenyl)-1-oxopropan-2-yl)(methyl)carbamate], the IC50 against AChE from electric eel was found to be 109 ± 1.1 µM; against BChE from equine serum, 14.81 ± 0.01 µM. The “SI (index selectivity) = IC50” value at BChE from equine serum came out at 7.35.

In the case of `COc1ccc(C(=O)C(C)N(C)C(=O)Oc2ccccc2)cc1` (stereo not drawn) [Compound 17, Phenyl (1-(4-methoxyphenyl)-1-oxopropan-2-yl)(methyl)carbamate], the IC50 turned out to be 90.21 ± 0.73 µM at AChE from electric eel and 106 ± 1.94 µM on BChE from equine serum. Besides, the “SI (index selectivity) = IC50” value at BChE from equine serum is reported as 0.85.

On AChE from electric eel, `Cc1ccc(C(=O)C(C)N(C)C(=O)Oc2ccccc2)cc1` (stereo not drawn) [Compound 18, Phenyl methyl(1-oxo-1-(p-tolyl)propan-2-yl)carbamate] gave a concentration for half-maximal inhibition (IC50) of 139 ± 1.45 µM. For the same compound, at BChE from equine serum, half-maximal inhibition (IC50) required 87.6 ± 2.37 µM and the “SI (index selectivity) = IC50” value was 1.58.

For the compound `CC(C(=O)c1ccc(Cl)cc1)N(C)C(=O)Oc1ccccc1` (stereo not drawn) [Compound 19, Phenyl (1-(4-chlorophenyl)-1-oxopropan-2-yl)(methyl)carbamate], the half-maximal inhibitory concentration (IC50) at AChE from electric eel worked out at 44.2 ± 2.35 µM. Moreover, at BChE from equine serum, the midpoint of inhibition, the IC50, lay at 38.96 ± 0.28 µM and the “SI (index selectivity) = IC50” value was found to be 1.14.

`CC(C(=O)c1ccc(Br)cc1)N(C)C(=O)Oc1ccccc1` (stereo not drawn) [Compound 20, Phenyl (1-(4-bromophenyl)-1-oxopropan-2-yl)(methyl)carbamate]: the IC50 at AChE from electric eel is 51.5 ± 1.38 µM. Also, at BChE from equine serum, the midpoint of inhibition, the IC50, lay at 44.1 ± 1.71 µM and the “SI (index selectivity) = IC50” value came out at 1.17.

With `Cc1ccc(C(=O)C(C)N(C)C(=O)Oc2ccccc2)cc1C` (stereo not drawn) [Compound 21, Phenyl (1-(3,4-dimethylphenyl)-1-oxopropan-2-yl)(methyl)carbamate], the IC50 on AChE from electric eel came out at 47.9 ± 2.09 µM; at BChE from equine serum, 26.41 ± 0.05 µM. The “SI (index selectivity) = IC50” value on BChE from equine serum stood at 1.82.

Turning to `CC(C(=O)c1ccc2c(c1)OCO2)N(C)C(=O)Oc1ccccc1` (stereo not drawn) [Compound 22, Phenyl (1-(benzo[d][1,3]dioxol-5-yl)-1-oxopropan-2-yl)(methyl)carbamate], the IC50 worked out at 84 ± 0.43 µM at AChE from electric eel and 53.6 ± 0.72 µM on BChE from equine serum. Moreover, the “SI (index selectivity) = IC50” value on BChE from equine serum worked out at 1.57.

In the case of `CCN(C(=O)OCc1ccccc1)C(C)C(=O)c1ccccc1` (stereo not drawn) [Compound 23, Benzyl ethyl(1-oxo-1-phenylpropan-2-yl)carbamate], half-maximal inhibition against AChE from electric eel (IC50) required 158.4 ± 0.87 µM. Besides, at BChE from equine serum, the half-inhibitory concentration (IC50) is 11.37 ± 0.05 µM and the “SI (index selectivity) = IC50” value was determined as 13.93.

As to `CCC(C(=O)c1ccccc1)N(C)C(=O)OCc1ccccc1` (stereo not drawn) [Compound 24, Benzyl methyl(1-oxo-1-phenylbutan-2-yl)carbamate], the 50% inhibitory concentration (IC50) worked out at 104 ± 2.91 µM at AChE from electric eel and 21.4 ± 0.26 µM on BChE from equine serum. In addition, the “SI (index selectivity) = IC50” value on BChE from equine serum amounted to 4.87.

In turn, `CCC(C(=O)c1ccccc1)N(CC)C(=O)OCc1ccccc1` (stereo not drawn) [Compound 25, Benzyl ethyl(1-oxo-1-phenylbutan-2-yl)carbamate] yielded an IC50 at AChE from electric eel of 119 ± 1.23 µM. For the same compound, at BChE from equine serum, half-maximal inhibition (IC50) required 21.3 ± 0.48 µM and the “SI (index selectivity) = IC50” value was determined as 5.61.

Compound `CCCC(C(=O)c1ccccc1)N(C)C(=O)OCc1ccccc1` (stereo not drawn) [Compound 26, Benzyl methyl(1-oxo-1-phenylpentan-2-yl)carbamate] displayed an IC50 against AChE from electric eel of 134.7 ± 0.7 µM. On BChE from equine serum, 16.3 ± 0.17 µM corresponded to half-maximal inhibition (IC50) and the “SI (index selectivity) = IC50” value stood at 8.26.

For the compound `Cc1cccc(C(=O)C(C)N(C)C(=O)OCc2ccccc2)c1` (stereo not drawn) [Compound 27, Benzyl methyl(1-oxo-1-(m-tolyl)propan-2-yl)carbamate], the IC50 against AChE from electric eel turned out to be 83.3 ± 2.49 µM; against BChE from equine serum it was 12.5 ± 0.24 µM. Besides, the “SI (index selectivity) = IC50” value on BChE from equine serum is 6.67.

Regarding `CC(C(=O)c1cccc(Cl)c1)N(C)C(=O)OCc1ccccc1` (stereo not drawn) [Compound 28, Benzyl (1-(3-chlorophenyl)-1-oxopropan-2-yl)(methyl)carbamate], the IC50 on AChE from electric eel came to 84.4 ± 2.27 µM. Besides, at BChE from equine serum, the IC50 amounted to 5.51 ± 0.2 µM and the “SI (index selectivity) = IC50” value was 15.31.

In turn, `COc1ccc(C(=O)C(C)N(C)C(=O)OCc2ccccc2)cc1` (stereo not drawn) [Compound 29, Benzyl (1-(4-methoxyphenyl)-1-oxopropan-2-yl)(methyl)carbamate] registered an IC50 on AChE from electric eel of 62.6 ± 0.65 µM. In addition, at BChE from equine serum, the midpoint of inhibition, the IC50, lay at 57.39 ± 0.02 µM and the “SI (index selectivity) = IC50” value is listed as 1.09.

For the compound `Cc1ccc(C(=O)C(C)N(C)C(=O)OCc2ccccc2)cc1` (stereo not drawn) [Compound 30, Benzyl methyl(1-oxo-1-(p-tolyl)propan-2-yl)carbamate], on AChE from electric eel, inhibition was half-maximal at 40.06 ± 0.01 µM (IC50). Moreover, on BChE from equine serum, the concentration for half-maximal inhibition (IC50) was determined as 26.4 ± 0.4 µM and the “SI (index selectivity) = IC50” value amounted to 1.52.

Regarding `CC(C(=O)c1ccc(Cl)cc1)N(C)C(=O)OCc1ccccc1` (stereo not drawn) [Compound 31, Benzyl (1-(4-chlroophenyl)-1-oxopropan-2-yl)(methyl)carbamate], on AChE from electric eel, it took 52.83 ± 0.34 µM to reach half-maximal inhibition (IC50). For the same compound, on BChE from equine serum, half-maximal inhibition (IC50) was put at 7.02 ± 0.15 µM and the “SI (index selectivity) = IC50” value was 7.53.

Regarding `CC(C(=O)c1ccc(Br)cc1)N(C)C(=O)OCc1ccccc1` (stereo not drawn) [Compound 32, Benzyl (1-(4-bromophenyl)-1-oxopropan-2-yl)(methyl)carbamate], at AChE from electric eel, the IC50 came to 32 ± 0.54 µM. Moreover, at BChE from equine serum, inhibition was half-maximal at 11.3 ± 0.15 µM (IC50) and the “SI (index selectivity) = IC50” value is 2.84.

For `Cc1ccc(C(=O)C(C)N(C)C(=O)OCc2ccccc2)cc1C` (stereo not drawn) [Compound 33, Benzyl (1-(3,4-dimethylphenyl)-1-oxopropan-2-yl)(methyl)carbamate], at AChE from electric eel, the IC50 was determined as 76.8 ± 2.76 µM. Besides, on BChE from equine serum, half-maximal inhibition (IC50) was put at 16.9 ± 0.22 µM and the “SI (index selectivity) = IC50” value came out at 4.55.
